Measurements reported in the SangsterLogP compilation.

| SMILES | logP |
| --- | --- |
| Clc1ccc(Cl)c(-c2cc(Cl)c(Cl)c(Cl)c2Cl)c1 | 6.75 |
| Clc1cccc(-c2ccccc2)c1Cl | 4.99 |
| Clc1ccc(-c2c(Cl)cc(Cl)c(Cl)c2Cl)c(Cl)c1Cl | 6.99 |
| Clc1ccc(-c2ccccc2)c(Cl)c1Cl | 5.68 |
| Clc1ccccc1-c1ccccc1 | 4.42 |
| Clc1ccc(-c2c(Cl)c(Cl)c(Cl)c(Cl)c2Cl)c(Cl)c1Cl | 7.35 |
| Clc1cc(Cl)c(-c2ccc(Cl)c(Cl)c2)c(Cl)c1 | 6.4 |
| Clc1cccc(-c2ccc(Cl)cc2Cl)c1 | 5.54 |
| Clc1ccc(-c2ccccc2)cc1 | 4.63 |
| Clc1cc(-c2c(Cl)c(Cl)c(Cl)c(Cl)c2Cl)cc(Cl)c1Cl | 7.62 |
| Clc1cc(Cl)c(Cl)c(-c2c(Cl)c(Cl)c(Cl)c(Cl)c2Cl)c1 | 7.43 |
| Clc1cc(Cl)c(-c2c(Cl)c(Cl)cc(Cl)c2Cl)cc1Cl | 6.92 |
| Clc1cc(Cl)c(-c2c(Cl)c(Cl)c(Cl)c(Cl)c2Cl)c(Cl)c1 | 7.48 |
| Clc1ccc(-c2c(Cl)ccc(Cl)c2Cl)cc1 | 5.76 |
| Clc1cccc(-c2cc(Cl)ccc2Cl)c1 | 5.65 |
| Clc1ccc(-c2ccccc2Cl)c(Cl)c1 | 5.39 |
| Clc1ccc(Cl)c(-c2c(Cl)c(Cl)c(Cl)c(Cl)c2Cl)c1 | 6.99 |
| Clc1cc(Cl)c(Cl)c(-c2c(Cl)c(Cl)cc(Cl)c2Cl)c1Cl | 7.16 |
| Clc1ccc(-c2cccc(Cl)c2)cc1 | 5.15 |
| Clc1ccc(-c2ccccc2)c(Cl)c1 | 5.16 |
| Clc1cccc(Cl)c1-c1c(Cl)cccc1Cl | 5.24 |
| Clc1cc(-c2c(Cl)c(Cl)c(Cl)c(Cl)c2Cl)c(Cl)c(Cl)c1Cl | 7.94 |
| Clc1ccc(-c2cc(Cl)ccc2Cl)c(Cl)c1 | 5.87 |
| Clc1ccc(-c2c(Cl)c(Cl)cc(Cl)c2Cl)cc1 | 6.39 |
| Clc1ccc(Cl)c(-c2ccccc2Cl)c1 | 5.34 |
| Clc1cc(Cl)cc(-c2ccccc2)c1 | 5.41 |
| Clc1ccc(-c2ccc(Cl)c(Cl)c2)c(Cl)c1 | 5.98 |

| SMILES | logP |
| --- | --- |
| Clc1ccc(-c2cc(Cl)c(Cl)cc2Cl)cc1 | 6.1 |
| Clc1ccc(-c2c(Cl)cccc2Cl)cc1 | 5.24 |
| Clc1ccc(Cl)c(-c2ccccc2)c1 | 5.1 |
| Clc1cc(Cl)c(-c2ccccc2Cl)cc1Cl | 5.69 |
| Clc1ccc(-c2c(Cl)cc(Cl)cc2Cl)cc1 | 6.03 |
| Clc1cccc(-c2cccc(Cl)c2)c1 | 5.27 |
| Clc1cc(Cl)c(Cl)c(-c2c(Cl)c(Cl)c(Cl)c(Cl)c2Cl)c1Cl | 7.77 |
| Clc1cccc(-c2cccc(Cl)c2Cl)c1Cl | 5.67 |
| Clc1ccc(-c2c(Cl)cc(Cl)c(Cl)c2Cl)cc1Cl | 6.78 |
| Clc1ccc(-c2ccccc2Cl)cc1 | 5.09 |
| Clc1cccc(-c2cc(Cl)c(Cl)c(Cl)c2Cl)c1 | 6.92 |
| Clc1ccc(-c2ccc(Cl)cc2)cc1 | 5.23 |
| Clc1ccc(Cl)c(-c2ccccc2)c1Cl | 5.44 |
| Clc1ccc(-c2ccc(Cl)c(Cl)c2)cc1 | 5.78 |
| Clc1cc(Cl)c(-c2c(Cl)cc(Cl)c(Cl)c2Cl)c(Cl)c1Cl | 7.21 |
| Clc1cc(-c2cc(Cl)c(Cl)c(Cl)c2Cl)c(Cl)c(Cl)c1Cl | 7.62 |
| Clc1cc(Cl)c(-c2ccccc2Cl)c(Cl)c1 | 5.75 |
| Clc1cc(Cl)c(-c2c(Cl)c(Cl)c(Cl)c(Cl)c2Cl)cc1Cl | 7.49 |
| Clc1cc(Cl)c(-c2ccc(Cl)c(Cl)c2Cl)cc1Cl | 6.72 |
| Clc1ccccc1-c1c(Cl)cccc1Cl | 5.04 |
| Clc1ccc(-c2cc(Cl)c(Cl)cc2Cl)c(Cl)c1 | 6.41 |
| Clc1ccc(-c2c(Cl)c(Cl)c(Cl)c(Cl)c2Cl)c(Cl)c1 | 7.13 |
| Clc1ccccc1-c1cc(Cl)c(Cl)c(Cl)c1Cl | 6.39 |
| Clc1ccc(Cl)c(-c2c(Cl)c(Cl)c(Cl)c(Cl)c2Cl)c1Cl | 7.21 |
| Clc1cc(Cl)cc(-c2cc(Cl)cc(Cl)c2)c1 | 6.6 |
| Clc1ccc(Cl)c(-c2cc(Cl)c(Cl)cc2Cl)c1 | 6.3 |

Other lines, results leading:

| logP | SMILES |
| --- | --- |
| 6.23 | Clc1ccc(-c2c(Cl)cc(Cl)cc2Cl)c(Cl)c1 |
| 6.58 | Clc1cc(Cl)c(-c2ccc(Cl)c(Cl)c2Cl)c(Cl)c1 |
| 5.81 | Clc1cccc(-c2cc(Cl)cc(Cl)c2)c1 |
| 7.21 | Clc1cc(Cl)c(Cl)c(-c2cc(Cl)c(Cl)c(Cl)c2Cl)c1 |
| 6.44 | Clc1ccc(-c2c(Cl)cc(Cl)c(Cl)c2Cl)cc1 |
| 5.79 | Clc1ccccc1-c1ccc(Cl)c(Cl)c1Cl |
| 6.43 | Clc1cc(Cl)cc(-c2c(Cl)cc(Cl)cc2Cl)c1 |
| 7.05 | Clc1cc(Cl)c(-c2c(Cl)cc(Cl)c(Cl)c2Cl)cc1Cl |
| 6.41 | Clc1ccc(Cl)c(-c2c(Cl)c(Cl)cc(Cl)c2Cl)c1Cl |
| 5.55 | Clc1ccc(Cl)c(-c2c(Cl)cccc2Cl)c1 |
| 5.76 | Clc1ccc(-c2c(Cl)cccc2Cl)cc1Cl |
| 7.43 | Clc1cc(-c2c(Cl)cc(Cl)c(Cl)c2Cl)c(Cl)c(Cl)c1Cl |
| 7.08 | Clc1ccc(-c2c(Cl)c(Cl)c(Cl)c(Cl)c2Cl)cc1Cl |
| 6.85 | Clc1cc(-c2c(Cl)ccc(Cl)c2Cl)c(Cl)c(Cl)c1Cl |
| 6.03 | Clc1cccc(-c2c(Cl)cc(Cl)cc2Cl)c1 |
| 5.6 | Clc1ccc(-c2c(Cl)cccc2Cl)c(Cl)c1Cl |
| 6.32 | Clc1ccc(-c2cc(Cl)cc(Cl)c2Cl)c(Cl)c1 |
| 5.94 | Clc1ccc(-c2ccc(Cl)cc2Cl)c(Cl)c1 |
| 6.32 | Clc1cccc(-c2cc(Cl)c(Cl)cc2Cl)c1 |
| 4.84 | Clc1cccc(-c2c(Cl)cccc2Cl)c1Cl |
| 6.32 | Clc1ccc(Cl)c(-c2cc(Cl)cc(Cl)c2Cl)c1 |
| 5.98 | Clc1ccccc1-c1cc(Cl)c(Cl)c(Cl)c1 |
| 6.45 | Clc1ccc(Cl)c(-c2c(Cl)cc(Cl)c(Cl)c2Cl)c1 |
| 6.78 | Clc1ccc(-c2c(Cl)c(Cl)cc(Cl)c2Cl)cc1Cl |
| 6.04 | Clc1cc(Cl)c(-c2cccc(Cl)c2Cl)c(Cl)c1 |

| logP | SMILES |
| --- | --- |
| 6.63 | Clc1cc(-c2c(Cl)ccc(Cl)c2Cl)cc(Cl)c1Cl |
| 5.72 | Clc1ccc(-c2cccc(Cl)c2Cl)c(Cl)c1 |
| 6.11 | Clc1cc(Cl)c(-c2cc(Cl)ccc2Cl)c(Cl)c1 |
| 6.06 | Clc1ccccc1-c1c(Cl)c(Cl)cc(Cl)c1Cl |
| 6.18 | Clc1ccc(-c2ccc(Cl)c(Cl)c2Cl)c(Cl)c1 |
| 7.35 | Clc1cc(-c2c(Cl)c(Cl)cc(Cl)c2Cl)c(Cl)c(Cl)c1Cl |
| 6.85 | Clc1cc(Cl)c(Cl)c(-c2c(Cl)c(Cl)cc(Cl)c2Cl)c1 |
| 6.1 | Clc1ccc(-c2cc(Cl)cc(Cl)c2Cl)cc1 |
| 6.78 | Clc1cc(Cl)c(-c2c(Cl)c(Cl)cc(Cl)c2Cl)c(Cl)c1 |
| 6.73 | Clc1ccc(-c2c(Cl)c(Cl)cc(Cl)c2Cl)c(Cl)c1Cl |
| 6.92 | Clc1cc(Cl)c(Cl)c(-c2c(Cl)cc(Cl)c(Cl)c2Cl)c1 |
| 6.45 | Clc1cc(Cl)cc(-c2c(Cl)ccc(Cl)c2Cl)c1 |
| 4.84 | Clc1ccccc1-c1c(Cl)ccc(Cl)c1Cl |
| 5.71 | Clc1cc(Cl)cc(-c2ccccc2Cl)c1 |
| 6.23 | Clc1ccc(Cl)c(-c2ccc(Cl)c(Cl)c2Cl)c1 |
| 7.21 | Clc1cc(-c2c(Cl)c(Cl)cc(Cl)c2Cl)cc(Cl)c1Cl |
| 5.85 | Clc1ccc(-c2cccc(Cl)c2Cl)cc1Cl |
| 7.21 | Clc1cc(Cl)cc(-c2c(Cl)c(Cl)c(Cl)c(Cl)c2Cl)c1 |
| 7.21 | Clc1cc(-c2c(Cl)cc(Cl)c(Cl)c2Cl)cc(Cl)c1Cl |
| 6.92 | Clc1cc(Cl)c(-c2cc(Cl)c(Cl)c(Cl)c2Cl)c(Cl)c1 |
| 6.76 | Clc1cccc(-c2cc(Cl)c(Cl)c(Cl)c2Cl)c1Cl |
| 6.41 | Clc1cccc(-c2c(Cl)c(Cl)cc(Cl)c2Cl)c1 |
| 5.71 | Clc1ccc(-c2ccccc2Cl)cc1Cl |
| 5.51 | Clc1ccc(-c2c(Cl)cccc2Cl)c(Cl)c1 |
